This data set deals with human EPAS1 (Hif2α) cDNA in psiCHECK2 (Renilla luciferase/EPAS1 fusion mRNA) in Hep3B cells. Nature of the data set: Efficacy screen of Hif2α RNAi triggers in vitro, dual-luciferase reporter assay (1 nM and 0.1 nM). The data set is classed as cell-based. To be noted: Hep3B cells co-transfected with EPAS1-psiCHECK2, Renilla luciferase normalized to firefly luciferase. The procedure, abridged:
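Knockdown read by dual-luciferase assay: Renilla signal from the Renilla/EPAS1 fusion transcript divided by firefly luciferase expressed from the same plasmid. Triggers (modified canonical siRNAs, 1 nM or 0.1 nM) were co-transfected with 25 ng reporter plasmid per well into human hepatocellular carcinoma Hep3B cells.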
Background: A reporter such as luciferase makes a cellular process visible.

Strand notation (5' to 3'): a small letter for the sugar, then the base; units joined by * are phosphorothioate-linked, units joined directly phosphodiester-linked; [ ] holds rarer units or linkages, { } end groups; capitals alone tell only the bases. d = 2'-deoxy (DNA); m = 2'-O-methyl; f = 2'-fluoro

As to “2291 (sense fUmCfGmGfGmAfAmUfCmAfGmAfAmCfUmUfCmGfAdT; antisense dTfCmGfAmAfGmUfUmCfUmGfAmUfUmCfCmCfGmAdT*dT; siRNA) [compound 2291]”, the “Relative Rluc-Hif2α” value is, setting by setting: (0.1 nM RNAi trigger) 0.911 ± 0.092; (1 nM RNAi trigger) 0.434 ± 0.046.

On to “2368 (sense fCmAfCmGfUmUfGmUfGmGfGmGfUmCfGmGfGmGfAdT; antisense dTfCmCfCmCfGmAfCmCfCmCfAmCfAmAfCmGfUmGdT*dT; siRNA) [compound 2368]”, for which the “Relative Rluc-Hif2α” value worked out at 1.036 ± 0.063 (0.1 nM RNAi trigger) and 1.140 ± 0.221 (1 nM RNAi trigger).

In the case of “2356 (sense fAmUfAmGfGmUfGmUfGmAfCmAfAmUfCmCfGmAfAdT; antisense dTfUmCfGmGfAmUfUmGfUmCfAmCfAmCfCmUfAmUdT*dT; siRNA) [compound 2356]”, the “Relative Rluc-Hif2α” value runs as follows: (0.1 nM RNAi trigger) 0.574 ± 0.006; (1 nM RNAi trigger) 0.210 ± 0.023.

For “2370 (sense fCmGfGmGfGmAfAmGfUmGfCmUfCmUfAmAfCmUfAdT; antisense dTfAmGfUmUfAmGfAmGfCmAfCmUfUmCfCmCfCmGdT*dT; siRNA) [compound 2370]”, the “Relative Rluc-Hif2α” value reads like this: (0.1 nM RNAi trigger) 0.498 ± 0.128; (1 nM RNAi trigger) 0.294 ± 0.026.

As for “2371 (sense fUmUfAmAfGmGfUmUfUmUfGmUfUmGfCmUfAmGfAdT; antisense dTfCmUfAmGfCmAfAmCfAmAfAmAfCmCfUmUfAmAdT*dT; siRNA) [compound 2371]”, the “Relative Rluc-Hif2α” value reads like this: (0.1 nM RNAi trigger) 0.193 ± 0.030; (1 nM RNAi trigger) 0.166 ± 0.037.

Regarding “2369 (sense fGmCfGmGfGmGfAmAfGmUfGmCfUmCfUmAfAmCfAdT; antisense dTfGmUfUmAfGmAfGmCfAmCfUmUfCmCfCmCfGmCdT*dT; siRNA) [compound 2369]”, the “Relative Rluc-Hif2α” value is given as 0.464 ± 0.032 (0.1 nM RNAi trigger) and 0.338 ± 0.055 (1 nM RNAi trigger).

As for “2278 (sense fCmCfAmGfUmAfCmCfGmGfAmUfGmCfUmCfGmCfAdT; antisense dTfGmCfGmAfGmCfAmUfCmCfGmGfUmAfCmUfGmGdT*dT; siRNA) [compound 2278]”, the “Relative Rluc-Hif2α” value is on record as 0.947 ± 0.044 (0.1 nM RNAi trigger) and 0.564 ± 0.070 (1 nM RNAi trigger).

As for “2302 (sense fCmUfUmUfGmAfUmGfCmCfGmGfAmAfGmCfAmAfAdT; antisense dTfUmUfGmCfUmUfCmCfGmGfCmAfUmCfAmAfAmGdT*dT; siRNA) [compound 2302]”, the “Relative Rluc-Hif2α” value by setting is: (0.1 nM RNAi trigger) 0.414 ± 0.019; (1 nM RNAi trigger) 0.147 ± 0.028.

On to “2353 (sense fUmGfCmCfAmUfAmGfGmUfGmUfGmAfCmAfAmUfAdT; antisense dTfAmUfUmGfUmCfAmCfAmCfCmUfAmUfGmGfCmAdT*dT; siRNA) [compound 2353]”, for which the “Relative Rluc-Hif2α” value (0.1 nM RNAi trigger) is on record as 0.635 ± 0.156 and the “Relative Rluc-Hif2α” value (1 nM RNAi trigger) is 0.324 ± 0.075.

Turning to “2394 (sense fAmGfCmUfUmCfAmUfAmUfUmAfAmCfCmCfUmAfAdT; antisense dTfUmAfGmGfGmUfUmAfAmUfAmUfGmAfAmGfCmUdT*dT; siRNA) [compound 2394]”, the “Relative Rluc-Hif2α” value by setting is: (0.1 nM RNAi trigger) 0.533 ± 0.076; (1 nM RNAi trigger) 0.254 ± 0.026.

Consider “2408 (sense fUmAfUmUfAmUfAmUfUmGfUmCfGmAfAmUfUmCfAdT; antisense dTfGmAfAmUfUmCfGmAfCmAfAmUfAmUfAmAfUmAdT*dT; siRNA) [compound 2408]”, for which the “Relative Rluc-Hif2α” value was 0.730 ± 0.045 (0.1 nM RNAi trigger) and 0.282 ± 0.004 (1 nM RNAi trigger).

For the substance “2317 (sense fCmUfCmGfAmGfGmCfCmCfAmGfAmCfGmUfGmCfAdT; antisense dTfGmCfAmCfGmUfCmUfGmGfGmCfCmUfCmGfAmGdT*dT; siRNA) [compound 2317]”, the “Relative Rluc-Hif2α” value (0.1 nM RNAi trigger) came out at 0.842 ± 0.239 and the “Relative Rluc-Hif2α” value (1 nM RNAi trigger) amounted to 0.843 ± 0.157.

Take “2346 (sense fAmAfCmGfUmAfUmGfUmGfGmUfUmAfUmCfUmGfAdT; antisense dTfCmAfGmAfUmAfAmCfCmAfCmAfUmAfCmGfUmUdT*dT; siRNA) [compound 2346]”: the “Relative Rluc-Hif2α” value is on record as 0.523 ± 0.133 (0.1 nM RNAi trigger) and 0.273 ± 0.012 (1 nM RNAi trigger).

For the substance “2300 (sense fCmUfGmUfAmGfCmCfCmCfGmCfAmCfAmGfUmCfAdT; antisense dTfGmAfCmUfGmUfGmCfGmGfGmGfCmUfAmCfAmGdT*dT; siRNA) [compound 2300]”, the “Relative Rluc-Hif2α” value is 1.090 ± 0.106 (0.1 nM RNAi trigger) and 0.786 ± 0.181 (1 nM RNAi trigger).

With “2342 (sense fCmAfAmCfUmCfCmAfAmCfGmUfAmUfGmUfGmGfAdT; antisense dTfCmCfAmCfAmUfAmCfGmUfUmGfGmAfGmUfUmGdT*dT; siRNA) [compound 2342]”, the “Relative Rluc-Hif2α” value reads like this: (0.1 nM RNAi trigger) 1.058 ± 0.064; (1 nM RNAi trigger) 0.549 ± 0.041.

“2407 (sense fAmCfGmUfAmAfCmGfAmUfUmUfCmAfUmGfAmAfAdT; antisense dTfUmUfCmAfUmGfAmAfAmUfCmGfUmUfAmCfGmUdT*dT; siRNA) [compound 2407]”: the “Relative Rluc-Hif2α” value by setting is: (0.1 nM RNAi trigger) 0.222 ± 0.027; (1 nM RNAi trigger) 0.124 ± 0.021.

In the case of “2349 (sense fAmCfGmGfCmCfUmGfUmAfCmGfGmAfCmAfCmUfAdT; antisense dTfAmGfUmGfUmCfCmGfUmAfCmAfGmGfCmCfGmUdT*dT; siRNA) [compound 2349]”, the “Relative Rluc-Hif2α” value worked out at 0.674 ± 0.172 (0.1 nM RNAi trigger) and 0.504 ± 0.062 (1 nM RNAi trigger).

Consider “2409 (sense fUmUfAmUfAmUfUmGfUmCfGmAfAmUfUmCfCmUfAdT; antisense dTfAmGfGmAfAmUfUmCfGmAfCmAfAmUfAmUfAmAdT*dT; siRNA) [compound 2409]”, for which the “Relative Rluc-Hif2α” value was 0.301 ± 0.085 (0.1 nM RNAi trigger) and 0.104 ± 0.020 (1 nM RNAi trigger).

Turning to “2348 (sense fCmCfAmCfGmGfCmCfUmGfUmAfCmGfGmAfCmAfAdT; antisense dTfUmGfUmCfCmGfUmAfCmAfGmGfCmCfGmUfGmGdT*dT; siRNA) [compound 2348]”, the “Relative Rluc-Hif2α” value by setting is: (0.1 nM RNAi trigger) 0.840 ± 0.270; (1 nM RNAi trigger) 0.454 ± 0.096.

As to “2247 (sense fGmCfUmAfAmCfAmGfGmAfCmAfUmAfGmUfAmUfAdT; antisense dTfAmUfAmCfUmAfUmGfUmCfCmUfGmUfUmAfGmCdT*dT; siRNA) [compound 2247]”, the “Relative Rluc-Hif2α” value (0.1 nM RNAi trigger) came to 0.439 ± 0.082 and the “Relative Rluc-Hif2α” value (1 nM RNAi trigger) was 0.231 ± 0.048.

Turning to “2387 (sense fAmUfAmCfCmAfAmUfUmAfCmAfUmGfGmAfAmCfAdT; antisense dTfGmUfUmCfCmAfUmGfUmAfAmUfUmGfGmUfAmUdT*dT; siRNA) [compound 2387]”, the “Relative Rluc-Hif2α” value amounted to 0.436 ± 0.028 (0.1 nM RNAi trigger) and 0.201 ± 0.063 (1 nM RNAi trigger).

For the substance “2391 (sense fAmGfAmAfAmUfUmCfCmUfUmAfGmUfCmAfUmGfAdT; antisense dTfCmAfUmGfAmCfUmAfAmGfGmAfAmUfUmUfCmUdT*dT; siRNA) [compound 2391]”, the “Relative Rluc-Hif2α” value is, setting by setting: (0.1 nM RNAi trigger) 0.273 ± 0.006; (1 nM RNAi trigger) 0.129 ± 0.015.

Regarding “2287 (sense fCmUfAmCfAmAfCmCfCmUfCmGfCmAfAmCfCmUfAdT; antisense dTfAmGfGmUfUmGfCmGfAmGfGmGfUmUfGmUfAmGdT*dT; siRNA) [compound 2287]”, the “Relative Rluc-Hif2α” value (0.1 nM RNAi trigger) stood at 0.871 ± 0.102 and the “Relative Rluc-Hif2α” value (1 nM RNAi trigger) came out at 0.751 ± 0.011.

On to “2376 (sense fGmAfUmGfGmUfCmUfUmUfCmAfCmAfCmGfGmCfAdT; antisense dTfGmCfCmGfUmGfUmGfAmAfAmGfAmCfCmAfUmCdT*dT; siRNA) [compound 2376]”, for which the “Relative Rluc-Hif2α” value runs as follows: (0.1 nM RNAi trigger) 0.546 ± 0.115; (1 nM RNAi trigger) 0.228 ± 0.029.

These data come from patent US9976141B2, “Compositions and methods for inhibiting gene expression of Hif2alpha” (Arrowhead Madison Inc., priority 2015, dated 2018).
